Read-outs that look alike come from different tables or passages of the source.
Target: T1, LmjIPCS (inositol phosphorylceramide synthase from L. major) (Leishmania major, UniProt E9AFX2)
T1 sequence (E9AFX2 1-338): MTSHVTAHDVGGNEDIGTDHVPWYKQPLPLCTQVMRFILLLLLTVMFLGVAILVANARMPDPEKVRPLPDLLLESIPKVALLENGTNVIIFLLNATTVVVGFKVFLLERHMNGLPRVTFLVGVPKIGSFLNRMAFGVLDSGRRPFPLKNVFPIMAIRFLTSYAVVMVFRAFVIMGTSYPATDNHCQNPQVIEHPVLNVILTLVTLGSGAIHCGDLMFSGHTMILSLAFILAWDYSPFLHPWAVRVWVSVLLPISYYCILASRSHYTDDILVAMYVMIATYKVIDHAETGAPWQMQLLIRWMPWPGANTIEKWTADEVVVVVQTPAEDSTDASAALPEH
Assay: biochemical
Assay type: biochemical
Set-up: inhibition: dose or concentration left out as unconfirmed
Settings: for inhibition at 20000 µM: read-out: 20mM inhibition LmjIPCS; for inhibition: read-out: inhibition LmjIPCS

[1] = screening of NINDS set, sheet Screen 1

With `CCN(CC)CCCC(C)Nc1ccnc2cc(Cl)ccc12` (stereo not shown) [CHLOROQUINE] the “20mM inhibition LmjIPCS” value was 38%.

Molecule `N[C@@H](CCC(=O)N[C@@H](CS)C(=O)NCC(=O)O)C(=O)O` [GLUTATHIONE] has an inhibition at 20000 µM of -0.349%.

Molecule `O=C(O)CCCc1ccccc1` [PHENYLBUTYRATE] has an inhibition at 20000 µM of 1.15%.

For `CC(=O)OCC1=C(C(=O)O)N2C(=O)[C@@H](NC(=O)Cc3cccs3)[C@H]2SC1` [CEPHALOTHIN], the “20mM inhibition LmjIPCS” value was 55%.

Molecule `CC(=O)Oc1cccc(O)c1` [RESORCINOL MONOACETATE] has an inhibition [1] of 4%.

For `O=C(O)c1cn(-c2ccc(F)cc2)c2cc(N3CCNCC3)c(F)cc2c1=O` [SARAFLOXACIN], the inhibition (NINDS set screen) was 18%.

Work on `CN[C@@H]1[C@@H](O[C@H]2O[C@H](CO)[C@@H](N)[C@H](O)[C@H]2O)OC2C[C@@H](N)[C@@H](O[C@H]3[C@H](O)[C@@H](O)[C@H](N)C[C@@H]3N)OC2[C@@H]1O` (stereo partly shown) [APRAMYCIN] yielded an inhibition at 20000 µM of 0.0509%.

For `CCOC(=O)[N-]c1cn(N2CCOCC2)n[o+]1` [MOLSIDOMINE], the inhibition at 20000 µM was -0.951%.

`NC(=O)c1ncn([C@@H]2O[C@H](CO)[C@@H](O)[C@H]2O)c1O` [MIZORIBINE] showed an inhibition at 20000 µM of 6.58%.

For `COc1ccccc1N1CCNCC1` [1- (2-METHOXYPHENYL)PIPERAZINE], the “20mM inhibition LmjIPCS” value was 30%.

`O=c1oc2cc(O)ccc2s1` [TIOXOLONE] gave an inhibition [1] of 3%.

With `COc1cc2cc3c4cc(OC)c(OC)cc4cc[n+]3c(C)c2cc1OC` [CORALYNE] the inhibition (NINDS set screen) was -5%.

With `CC[C@H](c1ccc(O)cc1)[C@@H](CC)c1ccc(O)cc1` [HEXESTROL] the “20mM inhibition LmjIPCS” value (NINDS set screen, single concentration printed as 20mM) was 34%.

`NC(=O)c1cnccn1` [PYRAZINAMIDE] showed an inhibition (NINDS set screen) of -17%.

In the case of `CNNC` [1,2-DIMETHYLHYDRAZINE], the “20mM inhibition LmjIPCS” value is reported as 15%.

`C[C@]12C=CC(=O)C=C1CC[C@H]1[C@@H]3C[C@@H](O)[C@](O)(C(=O)CO)[C@@]3(C)C[C@H](O)[C@@]12F` [TRIAMCINOLONE] was tested, and the inhibition (NINDS set screen) was -1.57%.

Work on `Cc1cc(-c2ccccc2)nnc1NCCN1CCOCC1` [MINAPRINE] yielded an inhibition (NINDS set screen) of 25%.

For `CCCC(CCC)C(=O)O` [VALPROATE SODIUM], the inhibition was 0.506%.

Work on `CCCCNc1cc(C(=O)O)cc(S(N)(=O)=O)c1Oc1ccccc1` [BUMETANIDE] yielded an inhibition of 9%.

In the case of `CC12CCC(CC1)C(C)(C)O2` [CINEOLE], the inhibition (NINDS set screen) is reported as -13%.

DEGUELIN(-) was tested, and the “20mM inhibition LmjIPCS” value was 51%.

For `Cc1ccc(C(=O)c2ccc(CC(=O)O)n2C)cc1` [TOLMETIN], the inhibition at 20000 µM was 4%.

`CCc1cccc2c3c([nH]c12)C(CC)(CC(=O)O)OCC3` (stereo not shown) [ETODOLAC] showed an inhibition of 13%.

`Cc1cc(NC(=O)C2=C(O)c3ccccc3S(=O)(=O)N2C)no1` [ISOXICAM] showed an inhibition at 20000 µM of -3%.

Molecule `O=[N+]([O-])NC1=NCCN1Cc1ccc(Cl)nc1` [IMIDACLOPRID] has an inhibition at 20000 µM of 8%.

`C[C@H]1O[C@@H](O[C@H]2[C@@H](O)C[C@H](O[C@H]3[C@@H](O)C[C@H](O[C@H]4CC[C@@]5(C)[C@H](CC[C@@H]6[C@@H]5C[C@@H](O)[C@]5(C)[C@@H](C7=CC(=O)OC7)CC[C@]65O)C4)O[C@@H]3C)O[C@@H]2C)C[C@H](O)[C@@H]1O` [DIGOXIN] showed an inhibition at 20000 µM of 5.32%.

For `NC(Cc1cc(I)c(Oc2cc(I)c(O)c(I)c2)c(I)c1)C(=O)O` (stereo not shown) [THYROXINE], the inhibition at 20000 µM was 12%.

`Cn1c([N+](=O)[O-])cnc1COC(N)=O` [RONIDAZOLE] showed an inhibition (NINDS set screen) of 0.0172%.

With `CC(C(=O)O)c1ccc(N2Cc3ccccc3C2=O)cc1` (stereo not shown) [INDOPROFEN] the inhibition at 20000 µM was -1.7%.

Work on `NCCCCC(=O)O` [5-AMINOPENTANOIC ACID] yielded an inhibition of -2.68%.

For `COC(=O)C1=C(C)NC(C)=C(C(=O)OCCN(C)Cc2ccccc2)C1c1cccc([N+](=O)[O-])c1` (stereo not shown) [NICARDIPINE], the inhibition was -15%.

Molecule `CC1(C)[C@@H](OC(=O)CCC(=O)O)CC[C@]2(C)[C@H]3C(=O)C=C4[C@@H]5C[C@@](C)(C(=O)O)CC[C@]5(C)CC[C@@]4(C)[C@]3(C)CC[C@@H]12` [CARBENOXOLONE] has an inhibition of 1.66%.

For `OCCOCCN1CCN(C(c2ccccc2)c2ccc(Cl)cc2)CC1` (stereo not shown) [HYDROXYZINE PAMOATE], the “20mM inhibition LmjIPCS” value was 45%.

Work on `CN(C)[C@@H]1C(O)=C(C(N)=O)C(=O)[C@@]2(O)C(O)=C3C(=O)c4c(O)ccc(Cl)c4[C@@H](O)[C@H]3C[C@@H]12` [DEMECLOCYCLINE] yielded an inhibition at 20000 µM of -2%.
